According to patent US12552825B2 (Zikani Therapeutics, Inc., priority 2019, dated 2026):
In brackets after ≈: the same amount, converted by molar mass.

How the values were obtained:
Format in all cases: cell-based
K. pneumoniae MP-546 = assay: MIC determination by CLSI broth dilution, K. pneumoniae MP-546; settings: strain MP-546; for MIC: Klebsiella pneumoniae, MP546, CLSI broth dilution
P. aeruginosa MP-3 = assay: MIC determination by CLSI broth dilution, P. aeruginosa MP-3; settings: Pseudomonas aeruginosa, MP3, strain MP-3
S. aureus MP-12 = assay: microbe, parasite or virus in culture; settings: Staphylococcus aureus, MP12, read-out: MIC S. aureus MP-12
A. baumannii MP-15 = assay: MIC determination by CLSI broth dilution, A. baumannii MP-15; settings: Acinetobacter baumannii, MP15, strain MP-15, read-out: MIC A. baumanii MP-15
K. pneumoniae MP-648 = assay: MIC determination by CLSI broth dilution, K. pneumoniae MP-648; settings: strain MP-648; for MIC: Klebsiella pneumoniae, MP648, CLSI broth dilution
E. coli MP-4 = assay: MIC determination by CLSI broth dilution, E. coli MP-4; settings: strain MP-4; for MIC: Escherichia coli, MP4, CLSI broth dilution

| SMILES | MIC (K. pneumoniae MP-546) | MIC (P. aeruginosa MP-3) | MIC (S. aureus MP-12) | MIC (A. baumannii MP-15) | MIC (K. pneumoniae MP-648) | MIC (E. coli MP-4) | MIC K. pneumoniae MP-546 (K. pneumoniae MP-546; CLSI broth dilution) | MIC K. pneumoniae MP-648 (K. pneumoniae MP-648; CLSI broth dilution) | MIC E. coli MP-4 (E. coli MP-4; CLSI broth dilution) |
| --- | --- | --- | --- | --- | --- | --- | --- | --- | --- |
| CCN1C[C@H](C)C[C@@](C)(OC)[C@H](O[C@@H]2O[C@H](C)C[C@H](N(C)C)[C@H]2O)[C@@H](C)C(=O)C(C)(C)C(=O)OC[C@@H]1CCCN(C)C(C)C [Compound 10, (3S,6R,8R,9R,10R)-9-(((2S,3R,4S,6R)-4-(dimethylamino)-3-hydroxy-6-methyltetrahydro-2H-pyran-2-yl)oxy)-4-ethyl-3-(3-(isopropyl(methyl)amino)propyl)-8-methoxy-6,8,10,12,12-pentamethyl-1-oxa-4-azacyclotridecane-11,13-dione] | < 4 µg/mL | > 32 µg/mL | < 4 µg/mL | > 32 µg/mL | < 4 µg/mL | < 4 µg/mL |  |  |  |
| CO[C@]1(C)C[C@@H](C)CN(C)[C@H](CCCN(C)C(C)C)COC(=O)C(C)(C)C(=O)[C@H](C)[C@H]1O[C@@H]1O[C@H](C)C[C@H](N(C)C)[C@H]1O [Compound 12, (3R,6R,8R,9R,10R)-9-(((2S,3R,4S,6R)-4-(dimethylamino)-3-hydroxy-6-methyltetrahydro-2H-pyran-2-yl)oxy)-3-(3-(isopropyl(methyl)amino)propyl)-8-methoxy-4,6,8,10,12,12-hexamethyl-1-oxa-4-azacyclotridecane-11,13-dione] | < 4 µg/mL | > 32 µg/mL | 4 to 32 µg/mL (≈ 6.52 to 52.1 µM) | > 32 µg/mL | < 4 µg/mL | < 4 µg/mL |  |  |  |
| CCCN1C[C@H](C)C[C@@](C)(OC)[C@H](O[C@@H]2O[C@H](C)C[C@H](N(C)C)[C@H]2O)[C@@H](C)C(=O)C(C)(C)C(=O)OC[C@@H]1CCCN(C)C(C)C [Compound 18, (3S,6R,8R,9R,10R)-9-(((2S,3R,4S,6R)-4-(dimethylamino)-3-hydroxy-6-methyltetrahydro-2H-pyran-2-yl)oxy)-3-(3-(isopropyl(methyl)amino)propyl)-8-methoxy-6,8,10,12,12-pentamethyl-4-propyl-1-oxa-4-azacyclotridecane-11,13-dione] | < 4 µg/mL | > 32 µg/mL | < 4 µg/mL | > 32 µg/mL | < 4 µg/mL | < 4 µg/mL |  |  |  |
| CCCN1C[C@H](C)C[C@@](C)(OC)[C@H](O[C@@H]2O[C@H](C)C[C@H](N(C)C)[C@H]2O)[C@@H](C)C(=O)C(C)(C)C(=O)OC[C@H]1CCCN(C)C [Compound 21, (3R,6R,8R,9R,10R)-9-(((2S,3R,4S,6R)-4-(dimethylamino)-3-hydroxy-6-methyltetrahydro-2H-pyran-2-yl)oxy)-3-(3-(dimethylamino)propyl)-8-methoxy-6,8,10,12,12-pentamethyl-4-propyl-1-oxa-4-azacyclotridecane-11,13-dione] | < 4 µg/mL | < 4 µg/mL | 4 to 32 µg/mL (≈ 6.52 to 52.1 µM) | > 32 µg/mL | < 4 µg/mL | < 4 µg/mL |  |  |  |
| CCCCCCCN1CCC([C@@H](O)[C@H]2COC(=O)C(C)(C)C(=O)[C@H](C)[C@@H](O[C@@H]3O[C@H](C)C[C@H](N(C)C)[C@H]3O)[C@](C)(OC)C[C@@H](C)CN2C)CC1 [Compound 22] | 4 to 32 µg/mL (≈ 5.62 to 44.9 µM) | > 32 µg/mL | > 32 µg/mL | > 32 µg/mL | > 32 µg/mL | < 4 µg/mL |  |  |  |
| CO[C@]1(C)C[C@@H](C)CN(C)[C@@H]([C@H](O)C2CCN(CC3CC3)CC2)COC(=O)C(C)(C)C(=O)[C@H](C)[C@H]1O[C@@H]1O[C@H](C)C[C@H](N(C)C)[C@H]1O [Compound 23, (3R,6R,8R,9R,10R)-3-((R)-(1-(cyclopropylmethyl)piperidin-4-yl)(hydroxy)methyl)-9-(((2S,3R,4S,6R)-4-(dimethylamino)-3-hydroxy-6-methyltetrahydro-2H-pyran-2-yl)oxy)-8-methoxy-4,6,8,10,12,12-hexamethyl-1-oxa-4-azacyclotridecane-11,13-dione] | 4 to 32 µg/mL (≈ 5.99 to 47.9 µM) | > 32 µg/mL | 4 to 32 µg/mL (≈ 5.99 to 47.9 µM) | > 32 µg/mL | 4 to 32 µg/mL (≈ 5.99 to 47.9 µM) | 4 to 32 µg/mL (≈ 5.99 to 47.9 µM) |  |  |  |
| CCCN1CCC([C@@H](O)[C@H]2COC(=O)C(C)(C)C(=O)[C@H](C)[C@@H](O[C@@H]3O[C@H](C)C[C@H](N(C)C)[C@H]3O)[C@](C)(OC)C[C@@H](C)CN2C)CC1 [Compound 24] | 4 to 32 µg/mL (≈ 6.1 to 48.8 µM) | > 32 µg/mL | 4 to 32 µg/mL (≈ 6.1 to 48.8 µM) | > 32 µg/mL | > 32 µg/mL | 4 to 32 µg/mL (≈ 6.1 to 48.8 µM) |  |  |  |
| CO[C@]1(C)C[C@@H](C)CN(C)[C@@H]([C@H](O)C2CCN(CC3CCCCC3)CC2)COC(=O)C(C)(C)C(=O)[C@H](C)[C@H]1O[C@@H]1O[C@H](C)C[C@H](N(C)C)[C@H]1O [Compound 25] | 4 to 32 µg/mL (≈ 5.63 to 45.1 µM) | > 32 µg/mL | > 32 µg/mL | > 32 µg/mL | 4 to 32 µg/mL (≈ 5.63 to 45.1 µM) | < 4 µg/mL |  |  |  |
| CO[C@]1(C)C[C@@H](C)CN(C)[C@H]([C@@H](O)C2CCN(CC3CC3)CC2)COC(=O)C(C)(C)C(=O)[C@H](C)[C@H]1O[C@@H]1O[C@H](C)C[C@H](N(C)C)[C@H]1O [Compound 26] |  | > 32 µg/mL | > 32 µg/mL | > 32 µg/mL |  |  | ++ (values of greater than 4 mg/L and less than or equal to 32 mg/L) | ++ (values of greater than 4 mg/L and less than or equal to 32 mg/L) | +++ (values less than or equal to 4 mg/L) |
| CO[C@]1(C)C[C@@H](C)CN(C)[C@H]([C@@H](O)C2CCN(C(C)C)CC2)COC(=O)C(C)(C)C(=O)[C@H](C)[C@H]1O[C@@H]1O[C@H](C)C[C@H](N(C)C)[C@H]1O [Compound 27] | 4 to 32 µg/mL (≈ 6.1 to 48.8 µM) | > 32 µg/mL | > 32 µg/mL | > 32 µg/mL | > 32 µg/mL | 4 to 32 µg/mL (≈ 6.1 to 48.8 µM) |  |  |  |
| COCO[C@@H](C1CCN(CC2CC2)CC1)[C@@H]1COC(=O)C(C)(C)C(=O)[C@H](C)[C@@H](O[C@@H]2O[C@H](C)C[C@H](N(C)C)[C@H]2O)[C@](C)(OC)C[C@@H](C)CN1C [Compound 29] | > 32 µg/mL | > 32 µg/mL | 4 to 32 µg/mL (≈ 5.62 to 44.9 µM) | > 32 µg/mL | > 32 µg/mL | 4 to 32 µg/mL (≈ 5.62 to 44.9 µM) |  |  |  |
| COCCCN1CCC(C[C@@H]2COC(=O)C(C)(C)C(=O)[C@H](C)[C@@H](O[C@@H]3O[C@H](C)C[C@H](N(C)C)[C@H]3O)[C@](C)(OC)C[C@@H](C)CN2C)CC1 [Compound 50] | < 4 µg/mL | > 32 µg/mL | 4 to 32 µg/mL (≈ 5.97 to 47.8 µM) | > 32 µg/mL | < 4 µg/mL | < 4 µg/mL |  |  |  |
| CO[C@]1(C)C[C@@H](C)CN(C)[C@H](CC2CCNCC2)COC(=O)C(C)(C)C(=O)[C@H](C)[C@H]1O[C@@H]1O[C@H](C)C[C@H](N(C)C)[C@H]1O [Compound 51] | > 32 µg/mL | > 32 µg/mL | > 32 µg/mL | > 32 µg/mL | > 32 µg/mL | 4 to 32 µg/mL (≈ 6.69 to 53.5 µM) |  |  |  |
| CO[C@]1(C)C[C@@H](C)CN(C)[C@H](CC2CCN(C(C)C)CC2)COC(=O)C(C)(C)C(=O)[C@H](C)[C@H]1O[C@@H]1O[C@H](C)C[C@H](N(C)C)[C@H]1O [Compound 52] | < 4 µg/mL | > 32 µg/mL | 4 to 32 µg/mL (≈ 6.25 to 50 µM) | > 32 µg/mL | 4 to 32 µg/mL (≈ 6.25 to 50 µM) | < 4 µg/mL |  |  |  |
| CCC(CCNCC(C)C)C[C@@H]1COC(=O)C(C)(C)C(=O)[C@H](C)[C@@H](O[C@@H]2O[C@H](C)C[C@H](N(C)C)[C@H]2O)[C@](C)(OC)C[C@@H](C)CN1C (stereo partly drawn) [Compound 53] | < 4 µg/mL | > 32 µg/mL | 4 to 32 µg/mL (≈ 6.1 to 48.8 µM) | > 32 µg/mL | < 4 µg/mL | < 4 µg/mL |  |  |  |
| CO[C@]1(C)C[C@@H](C)CN(C)[C@H](CC2CCN(CC3CCCCC3)CC2)COC(=O)C(C)(C)C(=O)[C@H](C)[C@H]1O[C@@H]1O[C@H](C)C[C@H](N(C)C)[C@H]1O [Compound 55] | < 4 µg/mL | > 32 µg/mL | 4 to 32 µg/mL (≈ 5.76 to 46.1 µM) | > 32 µg/mL | < 4 µg/mL | < 4 µg/mL |  |  |  |
| CCCCCCCN1CCC(C[C@@H]2COC(=O)C(C)(C)C(=O)[C@H](C)[C@@H](O[C@@H]3O[C@H](C)C[C@H](N(C)C)[C@H]3O)[C@](C)(OC)C[C@@H](C)CN2C)CC1 [Compound 56] | < 4 µg/mL | > 32 µg/mL | 4 to 32 µg/mL (≈ 5.75 to 46 µM) | > 32 µg/mL | < 4 µg/mL | < 4 µg/mL |  |  |  |
| CO[C@]1(C)C[C@@H](C)CN(C)[C@H](CC2CCN(CC3CC3)CC2)COC(=O)C(C)(C)C(=O)[C@H](C)[C@H]1O[C@@H]1O[C@H](C)C[C@H](N(C)C)[C@H]1O [Compound 57] | < 4 µg/mL | > 32 µg/mL | 4 to 32 µg/mL (≈ 6.14 to 49.1 µM) | > 32 µg/mL | < 4 µg/mL | < 4 µg/mL |  |  |  |
| CCC(CC)CN1CCC(C[C@@H]2COC(=O)C(C)(C)C(=O)[C@H](C)[C@@H](O[C@@H]3O[C@H](C)C[C@H](N(C)C)[C@H]3O)[C@](C)(OC)C[C@@H](C)CN2C)CC1 [Compound 58] | < 4 µg/mL | > 32 µg/mL | 4 to 32 µg/mL (≈ 5.87 to 46.9 µM) | > 32 µg/mL | < 4 µg/mL | < 4 µg/mL |  |  |  |
| CCCN1CC=C(C[C@@H]2COC(=O)C(C)(C)C(=O)[C@H](C)[C@@H](O[C@@H]3O[C@H](C)C[C@H](N(C)C)[C@H]3O)[C@](C)(OC)C[C@@H](C)CN2C)CC1 [Compound 59] | < 4 µg/mL | > 32 µg/mL | < 4 µg/mL | > 32 µg/mL | 4 to 32 µg/mL (≈ 6.27 to 50.2 µM) | < 4 µg/mL |  |  |  |
| CO[C@]1(C)C[C@@H](C)CN(C)[C@H](CC2CCN(C3CCCC3)CC2)COC(=O)C(C)(C)C(=O)[C@H](C)[C@H]1O[C@@H]1O[C@H](C)C[C@H](N(C)C)[C@H]1O [Compound 60] | < 4 µg/mL | > 32 µg/mL | 4 to 32 µg/mL (≈ 6.01 to 48.1 µM) | > 32 µg/mL | < 4 µg/mL | < 4 µg/mL |  |  |  |
| CO[C@]1(C)C[C@@H](C)CN(C)[C@H](CC2CCN(Cc3ccncc3)CC2)COC(=O)C(C)(C)C(=O)[C@H](C)[C@H]1O[C@@H]1O[C@H](C)C[C@H](N(C)C)[C@H]1O [Compound 61] | 4 to 32 µg/mL (≈ 5.81 to 46.4 µM) | > 32 µg/mL | 4 to 32 µg/mL (≈ 5.81 to 46.4 µM) | > 32 µg/mL | 4 to 32 µg/mL (≈ 5.81 to 46.4 µM) | < 4 µg/mL |  |  |  |
